From US12422438B2, “Means and methods for single molecule peptide sequencing” (VIB VZW, priority 2017, dated 2025)

Columns and labels:
[1] = biological target: T1, T. aquaticus aminopeptidase T (Thermus aquaticus, UniProt P23341); format: biochemical; settings: 40° C.; for Km / kcat: PBS; for Km: enzyme 2.0625 μM, substrate 0.0625-2 mM, Lineweaver-Burke plot; for kcat: kcat=Vmax/[E]; for on-time (min) / on-time (s): calculated as 1/kcat
T1 construct: 6xHis (C); made in house; host or cells: E. coli BL21(DE3), pET24b(+)
T1 sequence (P23341 with tags, fused parts or gaps): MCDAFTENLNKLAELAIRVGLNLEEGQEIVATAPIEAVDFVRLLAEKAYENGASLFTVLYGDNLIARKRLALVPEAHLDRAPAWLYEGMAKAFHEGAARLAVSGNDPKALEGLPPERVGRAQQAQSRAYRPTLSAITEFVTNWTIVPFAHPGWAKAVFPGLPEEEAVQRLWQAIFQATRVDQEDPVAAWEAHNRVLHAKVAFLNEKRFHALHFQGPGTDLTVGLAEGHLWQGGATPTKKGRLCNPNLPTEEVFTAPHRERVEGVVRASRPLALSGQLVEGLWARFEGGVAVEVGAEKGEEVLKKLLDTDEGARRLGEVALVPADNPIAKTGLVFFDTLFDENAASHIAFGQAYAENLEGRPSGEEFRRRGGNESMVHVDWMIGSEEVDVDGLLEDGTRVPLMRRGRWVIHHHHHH
Procedure: (§1) The kinetic parameters from T. aquaticus aminopeptidase T for cleaving different amino acid substrates was determined with a p-nitroanilide assay. Substrates consist of an N-terminal amino acid with a p-nitroanilide attached to its C-terminus. Upon amino acid cleavage, the free nitroanilide can be monitored by measuring the absorbance at 405 nm. T. aquaticus aminopeptidase T as depicted in SEQ ID No 8 was added in a concentration of 2.0625 μM (in PBS) to different concentrations of amino acid p-nitroanilide substrate (0.0625, 0.125, 0.25, 0.5, 1 and 2 mM in PBS). Subsequently p-nitroanilide release was continuously measured at 40° C. with a FLUOstar Omega microplate reader (MBG LabTech). From this, the initial velocity of the reaction at each substrate concentration was derived (v0). For each amino acid, a Lineweaver-Burke plot was generated from which the reaction Vmax and enzyme-substrate KM was determined. The turnover number, kcat, was calculated from the Vmax and the enzyme concentration (kcat=Vmax/[E]). The enzyme on-time value was then calculated by taking the reciprocal from the kcat value. The “on-time” values as shown in Table 1 are calculated as 1/kcat and as such is the overall time needed for an enzyme solution on the peptide until catalysis occurs.
(§2) The assays were performed at 40° C. below the enzyme's temperature optimum. Working more closely to the optimal temperature of 70° C. speeds up the reaction speed (kcat and enzyme on-time). […] The results as shown here not only validate the utility of the aminopeptidase as disclosed herein but also underpin and substantiate the methods and uses disclosed in current application.

[2] = biological target: T1, T. aquaticus aminopeptidase T; experiment: Aminopeptidase assay with different amino acid p-nitroanilide substrates at 40° C. and 80° C.; format: biochemical; settings: 2 h, PBS, substrate 1.5 mM
Procedure: FIG. 11. Aminopeptidase assay with different amino acid p-nitroanilide substrates. Enzyme and substrate (1.5 mM) were incubated for 2 h at 40° C. or 80° C. in PBS, after which the released p-nitroanilide was quantified by measuring the absorbance at 405 nm.
As described herein and in line with the invention described in current application, the activity differs between different amino acids. At 80° C., the panel of amino acid substrates can be roughly divided in fast-cleaved (L, M, Y, R, F) and slow-cleaved (D, P) substrates. However, at 40° C. it seems like the panel is divided in fast-cleaved (Y, R) and slow-cleaved (D, P), and substrates that lie in between (L, M, F). […] Finally, TagAPT is not only active in the p-nitroanilide assay. […] The N-terminal amino acid from peptides with proline at the second position is not easily cleaved since peptide bonds adjacent to the amino acid proline are resistant to cleavage by most peptidases (Iyver et al. 2015 FEBS Open Bio. 2015 Apr. 2; 5:292-302). In contrast to what Is stated in Minagawa et al (1988 Agricultural and Biological Chemistry 52:1755-1763) we show here that T. aquaticus aminopeptidase T can cleave N-terminal amino acids even when proline is at the second position. This surprising finding greatly enhances the generic use of Tag-APT in the method and uses disclosed in current application and in single molecule peptide sequencing in general.

[3] = Spontaneous Edman degradation (SPITC-induced cleavage) of amino acid p-nitroanilide substrates; settings: 30 min at 40° C., 300 mM triethanolamine in 50% acetonitrile (pH 9)
Procedure: FIG. 16. Spontaneous Edman degradation of different amino acid p-nitroanilide substrates. A. Sulfophenyl isothiocyanate (SPITC, 15 mM) and substrate (1.5 mM) were incubated for 30 min at 40° C. in 300 mM triethanolamine in 50% ACN, after which the released p-nitroanilide was quantified by measuring the absorbance at 405 nm. B. Time-kinetic measurement of SPITC-induced amino acid p-nitroanilide substrate cleavage.
Importantly, this spontaneous cleavage activity is also observed under conditions that are not typically used during the cleavage step in the classic Edman degradation reaction. In classic Edman degradation. ITC coupling is achieved under mild alkaline conditions (pyridine, trimethylamine, N-methylpiperidine) and amino acid cleavage under acidic conditions (trifluoroacetic acid). Here both ITC coupling and amino acid cleavage is achieved under mild alkaline conditions (triethanolamine).

[4] = substrate: CC(C)C[C@H](N)C(=O)Nc1ccc([N+](=O)[O-])cc1; experiment: purified protein, by the assay type; format: biochemical; settings: other: 40° C., PBS, enzyme 2.0625 μM, substrate 0.0625-2 mM, Lineweaver-Burke plot
Procedure: as §1, §2

With `C[C@H](N)C(=O)Nc1ccc([N+](=O)[O-])cc1` [Ala] the Km [1] was 736 µM, the kcat [1] was 0.01167 s⁻¹ and the “on-time (min)” value [1] was 1.4 min. The “on-time (s)” value [1] was 86 s.

With `NC(N)=NCCC[C@H](N)C(=O)Nc1ccc([N+](=O)[O-])cc1` [Arg] the Km [1] was 415 µM, the kcat [1] was 0.01638 s⁻¹ and the “on-time (min)” value [1] was 1.0 min. For the same molecule, the “on-time (s)” value [1] was 61 s, the “cleavage speed category of substrate” value ([2]; 40° C.) was “fast-cleaved” and the “cleavage speed category of substrate” value ([2]; 80° C.) was “fast-cleaved”. For the same molecule, the “cleavage speed category of substrate (endpoint activity measurement)” value [3] was “fast-cleaved”.

For `N[C@@H](CC(=O)O)C(=O)Nc1ccc([N+](=O)[O-])cc1` [D], the “cleavage speed category of substrate” value ([2]; 40° C.) was “slow-cleaved”, the “cleavage speed category of substrate” value ([2]; 80° C.) was “slow-cleaved” and the “cleavage speed category of substrate (endpoint activity measurement)” value [3] was “slow-cleaved”.

For `N[C@@H](Cc1ccccc1)C(=O)Nc1ccc([N+](=O)[O-])cc1` [F], the “cleavage speed category of substrate” value ([2]; 40° C.) was “in between”, the “cleavage speed category of substrate” value ([2]; 80° C.) was “fast-cleaved” and the “cleavage speed category of substrate (endpoint activity measurement)” value [3] was “fast-cleaved”.

In the case of `NCC(=O)Nc1ccc([N+](=O)[O-])cc1` [Gly], the Km [1] is reported as 765 µM, the kcat [1] is reported as 0.00307 s⁻¹ and the “on-time (min)” value [1] is reported as 5.4 min. The “on-time (s)” value [1] was 326 s.

For `CC(C)C[C@H](N)C(=O)Nc1ccc([N+](=O)[O-])cc1` [Leu, L-leucine-p-nitroanilide], the “on-time (min)” value [1] was 6.5 min, the “on-time (s)” value [1] was 390 s and the “cleavage speed category of substrate” value ([2]; 40° C.) was “in between”. The “cleavage speed category of substrate” value ([2]; 80° C.) was “fast-cleaved” and the “cleavage speed category of substrate (endpoint activity measurement)” value [3] was “fast-cleaved”.

With `NCCCC[C@H](N)C(=O)Nc1ccc([N+](=O)[O-])cc1` [Lys] the Km [1] was 193 µM, the kcat [1] was 0.00148 s⁻¹ and the “on-time (min)” value [1] was 11.3 min. For the same molecule, the “on-time (s)” value [1] was 677 s.

With `CSCC[C@H](N)C(=O)Nc1ccc([N+](=O)[O-])cc1` [Met] the Km [1] was 99 µM, the kcat [1] was 0.00471 s⁻¹ and the “on-time (min)” value [1] was 3.5 min. For the same molecule, the “on-time (s)” value [1] was 212 s, the “cleavage speed category of substrate” value ([2]; 40° C.) was “in between” and the “cleavage speed category of substrate” value ([2]; 80° C.) was “fast-cleaved”. The “cleavage speed category of substrate (endpoint activity measurement)” value [3] was “fast-cleaved”.

For `O=C(Nc1ccc([N+](=O)[O-])cc1)[C@@H]1CCCN1` [Pro], the Km [1] was 546 µM, the kcat [1] was 0.00198 s⁻¹ and the “on-time (min)” value [1] was 8.4 min. For the same molecule, the “on-time (s)” value [1] was 504 s, the “cleavage speed category of substrate” value ([2]; 40° C.) was “slow-cleaved” and the “cleavage speed category of substrate” value ([2]; 80° C.) was “slow-cleaved”. For the same molecule, the “cleavage speed category of substrate (endpoint activity measurement)” value [3] was “slow-cleaved”.

For `N[C@@H](Cc1ccc(O)cc1)C(=O)Nc1ccc([N+](=O)[O-])cc1` [Tyr], the Km [1] was 211 µM, the kcat [1] was 0.00707 s⁻¹ and the “on-time (min)” value [1] was 2.4 min. The “on-time (s)” value [1] was 142 s, the “cleavage speed category of substrate” value ([2]; 40° C.) was “fast-cleaved” and the “cleavage speed category of substrate” value ([2]; 80° C.) was “fast-cleaved”. The “cleavage speed category of substrate (endpoint activity measurement)” value [3] was “fast-cleaved”.

With `CC(C)[C@H](N)C(=O)Nc1ccc([N+](=O)[O-])cc1` [Val] the Km [1] was 192 µM, the kcat [1] was 0.00138 s⁻¹ and the “on-time (min)” value [1] was 12.1 min. For the same molecule, the “on-time (s)” value [1] was 727 s.

B1: T. aquaticus aminopeptidase T (Thermus aquaticus) (protein)
chain: T1 sequence (P23341 with tags, fused parts or gaps)
notes: 6xHis (C); made in house; host or cells: E. coli BL21(DE3), pET24b(+)
In the case of B1, the Km [4] is reported as 92 µM, the kcat [4] is reported as 0.00256 s⁻¹ and the kcat/Km [4] is reported as 27.9 M⁻¹ s⁻¹.
